Test results: patent publication US20130324543A1, “REVERSAL OF HIGH BREAST CANCER RISK IN MAMMALS EXPOSED TO ESTROGENIC CHEMICALS IN UTERO BY ADULT EXPOSURE TO HDAC AND DNMT INHIBITORS” (Georgetown University, priority 2012, published 2013)
Entries after “also recorded” stand apart in the source; their conditions may differ.

Experiments:
mammary tumors [1] = assay: MPA/DMBA mammary tumorigenesis in mice exposed in utero to EE2, GEN or BPA (Example 5); assay type: in vivo, C57BL/6 mice
Description: (§1) Additions to the basic diet were as follows: 1) cornstarch [control]; 2) EE2 0.1 ppm; 3) BPA 0.155 ppm; 4) GEN 500 ppm.

[2] = Puberty onset (vaginal opening) of female mice exposed in utero; assay type: in vivo, C57BL/6 mice; details: female offspring, in utero exposure
Procedure: To assess possible changes in sexual maturation due to in utero ECD exposures during embryogenesis, the day of puberty onset was recorded, as defined based on vaginal opening (VO) in female mice. The mice were examined once a day starting on PND 21. In sexually mature mice, the stage of estrus cycle was determined based on the cytology of their vaginal smear (sampled by pipetting 20 μl PBS in and out of vagina onto a slide) as judged under the microscope. Stage of estrus cycle was determined for each mouse before necropsy and sample collection.

[3] = Body weight and growth of in utero exposed pups; assay type: in vivo, C57BL/6 mice; details: in utero exposure
Description: as §1

mammary tumors [4] = assay: MPA/DMBA-induced mammary tumorigenesis in mice exposed in utero to EE2 or GEN, with or without adult HDAC+DNMT inhibitors
Procedure: Time pregnant C57BL/6 female mice were obtained from Harlan (Harlan-Teclad, USA) on gestation day 6, and were randomly assigned into three groups on the following day (gestation day 7). The basic diet formulation in the study was a semi-purified AIN93G (the American Institute of Nutrition) modified to replace soy oil for corn oil; all the diets of the three treatment groups were also purchased from Harlan. The diets were isocaloric, as ethinyl estradiol (EE2) or genistein (GEN) were added in the diet at the expense of comstarch. Additions to the basic diet were as follows: 1) EE2 0.1 ppm, and 2) GEN 500 ppm. EE2 was purchased from Sigma Chemicals (St. Louis, Mo., USA), and GEN was a gift from Dr. William Helferich (University of Illinois, Urbana, Ill., USA).
The pregnant dams were fed these diets until the day of the delivery of their pups (Post Natal Day 0, PND 0). Starting on PND 0, all mice were fed the control diet until the end of the study. Female mice born from the dams fed with the different above mentioned diets were used in the subsequent studies. For study outline, see FIG. 12. Animals were housed in a temperature- and humidity-controlled room under a 12-hour light-dark cycle. All animal procedures were approved by the Georgetown University Animal Care and Use Committee, and the experiments were performed following the National Institutes of Health guidelines for the proper and humane use of animals in biomedical research.
Mammary tumors were induced by administration of a subcutaneous injection of Medroxyprogesterone Acetate (MPA) to mice at 6 weeks of age, followed by administration of 1 mg 7,12-dimethylbenz(a)anthracene (DMBA) (Sigma, St. Louis, Mo.) weekly for four weeks (weeks 7, 8, 9, 10) (23). The carcinogen was dissolved in corn oil and administered by oral gavage in a volume of ca. 0.1 ml.
One week after the last dose of DMBA was administered, some of the mice were started on hydralazine (5 mg/kg/day) and valproic acid treatments (1.16 g/kg/day) treatments.
The two compounds were given in a drinking water, which was prepared fresh twice a week. The doses were chosen based on the literature (24-26). The number of animals in each group is as follows: Control n=18, Control given HDAC+DNMT inhibitors n=9, EE2 n=9, EE2 given HDAC+DNMT inhibitors n=6, GEN n=14, and GEN given HDAC+DNMT inhibitors n=8.
Mice were examined for mammary tumors by palpation once per week. Tumor growth was monitored for 16 weeks after the last dose of DMBA administration. During the follow-up, animals in which tumor burden approximated 10% of total body weight were euthanized, as required by the ethical guidelines of our institution. All surviving animals were sacrificed at that point for sample collection. The end-points for tumor data analysis were (i) latency to tumor appearance, (ii) the number of animals with tumors (tumor incidence), and (iii) the cumulative tumor area (tumor burden). The latter was achieved by adding the total tumor area per group each week and dividing it with the number of mice in the group.
(§2) Mammary tumor latency was compared with the final tumor burden in utero EE2 and GEN exposed mice to control mice, and in utero EE2 and GEN exposed mice to control mice exposed to HDAC+DNMT inhibitors separately; analysis was done using one-way ANOVA. Cumulative tumor burden during 16 weeks of tumor monitoring in the three groups, separately in those mice not given HDAC+DNMT inhibitors and those treated with the epigenetic drugs, was analysed using repeated measures one-way ANOVA. Log rank analysis was performed to compare mammary tumor incidence in the control and in utero EE2 and GEN exposed mice, again separately in those mice not given HDAC+DNMT inhibitors and those treated with the epigenetic drugs. Data for changes in DNMT1 expression among the groups in the mammary glands and tumors were assessed using two-way ANOVA, followed by Fisher LSD test

mammary gland [5] = assay: Mammary gland morphology of in utero exposed mice (whole mounts); assay type: in vivo, C57BL/6 mice; details: female mice, PND 27
Procedure: One of the two #4 abdominal mammary glands was dissected and fixed in Carnoy's fixative and processed into whole mounts as previously described (8). The other #4 abdominal gland was snap frozen in liquid nitrogen and stored in −80° C. for future analysis. One of the two thoracic #2-3 mammary glands was fixed in neutral buffered 10% formalin, embedded in paraffin and processed for histology using routine methods, and the other was snap frozen in liquid nitrogen, also stored in −80° C. for future analysis. Uterus was dissected, and one horn with the ovary and vagina attached was fixed in 10% formalin, embedded in paraffin and processed for histology, and the other horn and one ovary were frozen in liquid nitrogen and stored in −80° C.
To assess possible changes in mammary gland morphology, whole amounts of the 4th abdominal glands obtained on PND 27 were processed as previously described (4, 72). The total number of terminal end buds (TEBs) was counted. Identification of TEBs was based on the guidelines established by Russo and Russo (64). The total area (in pixels) of epithelium of the peripubertal (PND 27) mammary glands was analyzed by using ImageJ software (available through NIH web site) on digitized pictures of mammary whole mounts with ducts manually intensified black against white background (shown as an insert in FIG. 16). Ductal elongation (mammary epithelial outgrowth) on PND 50 was measured as the growth in millimeters from the end of the lymph node to the end of the epithelial tree. All the analyses were done blindly using an Olympus dissecting microscope.

DNMT1 = DNMT1 mRNA expression (qRT-PCR) in mouse mammary glands and tumors; assay type: in vivo; details: in utero exposure vs control mice
Description: Total RNA was extracted using an RNeasy lipid mini kit (Qiagen, CA), according to manufacturer's instructions. One […] of total RNA per sample was used as a template for oligo-dT primed cDNA synthesis with a Supterscript reverse transcriptase, using Taqman Reverse Transcription kit (Applied Biosystems, CA). The cDNA samples served then as templates for quantitative real time PCR analysis with specific primers for the target gene using QuantiTect SYBR green PCR kit (Qiagen Inc., Valencia, Calif.) and an ABI Prism 7900 Sequence Detection System. Each sample was run in triplicate on a 384-well plate, and the qPCR run was repeated twice. The Ct values were averaged from the triplicates for each sample. To normalize the target gene expression the ratio to control RNA was calculated, i.e. the averages of the Ct triplicates from the Dnmt1 gene were divided by the average of the triplicates from the 18S gene. To determine the fold change of the target gene expression the results are presented as 2^ΔCt, where ΔCt=CT^target−Ct^18S.
The primer sequences for m18S rRNA were as previously published by Wang et al. (27).
as §2

[6] = Immediate adverse effects of dietary exposure in adult non-pregnant littermates of dams; assay type: in vivo, mice; details: last day of dietary exposure, data not shown
Procedure: For ethical reasons non-pregnant littermate females were used for blood collection instead of the dams, and the samples were taken on the last day of their dietary exposure. Blood was collected by heart puncture of anesthetized mice prior to euthanasia, and serum was separated by centrifugation (1000×g for 10 min) and stored frozen until hormone measurements.
In addition, possible immediate adverse effects of EE2, BPA and GEN exposure for adult mice were evaluated using the non-pregnant littermates of dams. Their body weights were recorded and the mammary gland morphology examined on the last day of their dietary exposure.

PcGTs = assay: Microarray expression of PcGTs in mammary glands of in utero E2 exposed rats; assay type: in vivo; details: PND 50
[7] = tested on: estrogen receptor alpha (ER-a); assay: ER-a methylation and expression in mammary glands of in utero E2 exposed rats
Description: A high in utero estrogenic environment increases the risk of developing breast cancer (FIG. 1). Increased risk is associated with greater epithelial cell proliferation and survival during mammary gland development, driven by persistent changes in the mammary transcriptome. How these transcriptional changes are initiated and maintained is unclear. […] We then determined whether estrogen receptor alpha (ER-a) is methylated in the E2 exposed rats. […] These mechanisms could include non-coding microRNAs (miRNAs) which are essential for early development and which inhibit expression of their target genes. Since several miRNAs are known to be suppressed by E2 in MCF-7 human breast cancer cells (Maillot et al. Cancer Res 2009), we determined whether persistent changes in miRNA expression may be seen in the adult mammary glands of rats exposed to E2 in utero. miRNAs were measured using applied Biosystems TaqManR Array Rodent MicroRNA.

mammary tumors [8] = assay: Mammary tumorigenesis in F1 rats exposed to E2 in utero (FIG. 7); assay type: in vivo; details: F1 generation exposed in utero vs controls
mammary tumors [9] = assay: Acquired tamoxifen (TAM) resistance of mammary tumors in in utero exposed rats; assay type: in vivo; details: 14-week follow-up, 7% in the control group
mammary gland [10] = assay: Mammary gland morphology and TEB number after maternal E2 or high fat diet (FIG. 8, 11); assay type: in vivo, rats
Description: exposures during pregnancy: […] Statistical analysis was done using ANOVA followed by between group comparisons using Tukey test. […] TEBs are the sites which give rise to malignant mammary tumors in rats; similar structures in the human breast-terminal ductal lobular units-give rise to 90% of human breast cancers.

[11] = tested on: MCF-7 breast cancer cells; details: MCF-7 cells; cited from earlier work

Which “cumulative tumor burden compared to the group exposed to control diet in utero” value (mammary tumors [1]; in utero exposure) does the source give for `O=c1c(-c2ccc(O)cc2)coc2cc(O)cc(O)c12` [GEN, Genistein] here?
Its value is “approximately four”.

What about the “mammary tumorigenesis (onset of tumor growth and cumulative tumor burden)” value (mammary tumors [1]; in utero exposure compared to controls) of the same compound?
The value was “Enhanced mammary tumorigenesis”.

And the “puberty onset / vaginal opening” value [2]?
The value was “delayed vaginal opening”.

What about the “puberty onset / vaginal opening” value ([2]; listed as genistein) of the same compound?
Its value is “delayed puberty onset”.

What about the “birthweight, or postnatal weight development” value [3] of the same compound?
Its value is “did not alter”.

What about the mammary tumorigenesis (mammary tumors [4]; in utero exposed offspring compared to the controls) of the same compound?
The mammary tumorigenesis was “increased mammary tumorigenesis”.

And the “Latency for first tumor to develop” value (mammary tumors [4]; in utero exposure (EE2 0.1 ppm or GEN 500 ppm in dam's diet) vs control mice)?
Its value is “significantly shorter”.

And the Mammary tumor incidence (mammary tumors [4]; in utero exposure vs control mice)?
The Mammary tumor incidence was “significantly higher”.

And the “Final tumor burden per mouse” value (mammary tumors [4]; in utero exposure vs controls)?
Its value is “significantly higher”.

And the “total epithelial area of the glands” value (mammary gland [5])?
The value was “nearly significantly increased”.

And the “DNMT1 expression in mammary tumors” value (DNMT1)?
The value was “significantly lower”.

What about the “expression of DNMT1 in mammary glands” value (DNMT1) of the same compound?
Its value is “a similar increase; also recorded: an increase in DNMT1 expression; also recorded: persistent up-regulation”.

What about the “body weight or mammary epithelial development” value [6] of the same compound?
The value was “No significant differences”.

With `CC(C)(c1ccc(O)cc1)c1ccc(O)cc1` [BPA, Bisphenol A] as the compound, how does the “cumulative tumor burden compared to the group exposed to control diet in utero” value (mammary tumors [1]; C57BL/6, mouse, in vivo) read?
Its value is about 1.5 times.

What about the “mammary tumorigenesis (onset of tumor growth and cumulative tumor burden)” value (mammary tumors [1]; mouse, in vivo) of the same compound?
The value was “Enhanced mammary tumorigenesis”.

What about the “puberty onset / vaginal opening” value [2] of the same compound?
The value was “no effect”.

And the “total epithelial area of the glands” value (mammary gland [5])?
The value was “significantly increased”.

What about the “body weight or mammary epithelial development” value [6] of the same compound?
Its value is “No significant differences”.

Which results are given for `C[C@]12CC[C@@H]3c4ccc(O)cc4CC[C@H]3[C@@H]1CC[C@@H]2O` [E2, estradiol]?
Fold down-regulated in E2 group (PcGTs; Actn1, alpha 1 actin): −5.63 (p < 0.03) Fold; Fold down-regulated in E2 group (PcGTs; Ccl2, chemokine (C-C motif) ligand 2): −1.81 (0.00) Fold; Fold down-regulated in E2 group (PcGTs; Ckm, muscle creatine kinase): −7.68 (p < 0.01) Fold; Fold down-regulated in E2 group (PcGTs; H19/Pro2605, H19fetal liver mRNA (imprinted gene)): −3.28 (p < 0.03) Fold; Fold up-regulated in E2 group (PcGTs; Hmgcs2, 3-hydroxy-3-methylglutaryl-Coenzyme A synthase 2): 2.46 (p < 0.00) Fold; Fold up-regulated in E2 group (PcGTs; Lep, Leptin): 1.59 (p < 0.02) Fold; Fold down-regulated in E2 group (PcGTs; Myh13, heavy polypeptide 13 myosin): −6.08 (p < 0.01) Fold; Fold down-regulated in E2 group (PcGTs; Myl2, light polypeptide 2 myosin): −10.19 (p < 0.02) Fold; Fold up-regulated in E2 group (PcGTs; Pdk4, puruvate dehydrogenase kinase isoenzyme 4): 1.82 (p < 0.02) Fold; Fold down-regulated in E2 group (PcGTs; Pvnlb, parvalbumin): −8.64 (p < 0.03) Fold; expression of ER-a [7]: up-regulated; Mammary tumor incidence (mammary tumors [8]): higher; total tumor burden (mammary tumors [8]): also higher; tumor multiplicity (mammary tumors [8]): also higher; acquired resistance to TAM (mammary tumors [9]): 50%; number of TEBs (mammary gland [10]; 1st generation offspring, postnatal day 21): increased; mammary gland morphology (parenchyma, TEBs, ductal elongation, size) (mammary gland [10]; 21-day-old rats exposed to 10 μg in utero vs control rats): contain a larger parenchyma and more TEBs, exhibit more advanced ductal elongation, and are larger; expression of the same miRNAs [11]: down-regulated
